The values below come from patent US10307413B2, “Tetrahydro- and dihydro-isoquinoline PRMT5 inhibitors and uses thereof” (Epizyme, Inc., priority 2013, dated 2019).

Read-outs that look alike come from different tables or passages of the source.

Experiment [1] concerns symmetric di-methyl arginine in Z-138 cells. As to the kind of experiment: Z-138 Methylation Assay (In Cell Western for symmetric di-methyl arginine and DNA content). In kind it is cell-based. The conditions noted are these: Homo sapiens, read-out: ICW EC50. The gist of the method: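 Z-138 cells (50,000 cells/mL) treated with compound 96 h at 37 °C, then fixed and stained for symmetric di-methyl arginine (800 nm) with DRAQ5 DNA counterstain (700 nm) on Licor Odyssey.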

For a further experiment, the system named is Z-138 cell line. As to the kind of experiment: Z-138 Proliferation Assay (Cell Titer Glo, 5 days). The format is cell-based. The conditions noted are these: Homo sapiens, 120 h, Z-138 cells, 5 days, read-out: Proliferation EC50. The essentials: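 Z-138 cells exposed 5 days at 37 °C, 5% CO2 to nine-point 3-fold dilutions (final top 20 μM, 0.2% DMSO), in triplicate. Viability read as ATP by CellTiter-Glo luminescence; IC50 from 4-parameter fit of normalized dose-response curves.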
On the technique in general: In ATP-based viability assays light output follows the ATP content of the culture.

Regarding `O=C(NC[C@H](O)CN1CCc2ccccc2C1)c1cc(OC2CCN(CC(F)(F)F)CC2)ncn1` [Compound 285], the EC50 lay in the range of 101 to 1000 nM in experiment [1] and 1000 to 10000 nM in the experiment on Z-138 cell line.

As for `CS(=O)(=O)N1CCC(Oc2cc(C(=O)NC[C@H](O)CN3CCc4ccccc4C3)ncn2)CC1` [Compound 286], the EC50 in experiment [1] is less than 100 nM; with Z-138 cell line, 1000 to 10000 nM.

For the molecule `CC(=O)N1CCC(Oc2cc(C(=O)NC[C@H](O)CN3CCc4ccccc4C3)ncn2)CC1` [Compound 287], the EC50 in experiment [1] was less than 100 nM; in the experiment on Z-138 cell line it was 101 to 1000 nM.

Take `CN1CCC(Oc2cncc(C(=O)NC[C@H](O)CN3CCc4ccccc4C3)c2)CC1` [Compound 288]: the EC50 (in experiment [1]; with Z-138 cell line) was less than 100 nM throughout.

Regarding `CS(=O)(=O)N1CCC(Oc2cncc(C(=O)NC[C@H](O)CN3CCc4ccccc4C3)c2)CC1` [Compound 290], the EC50 in experiment [1] was 101 to 1000 nM; in the experiment with Z-138 cell line it was 10000 to 50000 nM.

Regarding `CC(=O)N(C)CCN(C)c1cc(C(=O)NC[C@H](O)CN2CCc3ccccc3C2)ccn1` [Compound 291], the EC50 in experiment [1] was less than 100 nM; with Z-138 cell line, 1000 to 10000 nM.

Consider `CN1CCC(CNc2cc(C(=O)NC[C@H](O)CN3CCc4ccccc4C3)ccn2)CC1` [Compound 292], for which the EC50 in experiment [1] was less than 100 nM; with Z-138 cell line, 101 to 1000 nM.

As for `CC(=O)N1CC[C@@H](Nc2cccc(C(=O)NC[C@H](O)CN3CCc4ccccc4C3)c2)C1` [Compound 293], the EC50 (in experiment [1]; with Z-138 cell line) was less than 100 nM in each case.

`O=C(NC[C@H](O)CN1CCc2ccccc2C1)c1ccc2[nH]cnc2c1` [Compound 294]: the EC50 lay in the range of 101 to 1000 nM in experiment [1] and 1000 to 10000 nM with Z-138 cell line.

As for `O=C(NC[C@H](O)CN1CCc2ccccc2C1)c1cc2c(F)cccc2[nH]1` [Compound 296], the EC50 in experiment [1] is less than 100 nM; with Z-138 cell line, 101 to 1000 nM.

`CS(=O)(=O)N1CCC(Nc2cc(C(=O)NC[C@H](O)CN3CCc4ccccc4C3)ncn2)CC1` [Compound 297]: the EC50 (in experiment [1]; with Z-138 cell line) was less than 100 nM in each case.

Turning to `O=C(NC[C@H](O)CN1CCc2ccccc2C1)c1cncc(NC2CCOCC2)c1` [Compound 298], the EC50 is less than 100 nM in experiment [1] and 101 to 1000 nM in the experiment on Z-138 cell line.

Regarding `O=C(NC[C@H](O)CN1CCc2ccccc2C1)c1cncc(NC2COC2)c1` [Compound 299], the EC50 lay within 101 to 1000 nM in experiment [1] and 10000 to 50000 nM in the experiment with Z-138 cell line.

For the molecule `O=C(NC[C@H](O)CN1CCc2ccccc2C1)c1cncc(NC2CCN(CC(F)(F)F)CC2)c1` [Compound 300], the EC50 is less than 100 nM in experiment [1] and 1000 to 10000 nM in the experiment on Z-138 cell line.

In the case of `CS(=O)(=O)N1CCC(Nc2cncc(C(=O)NC[C@H](O)CN3CCc4ccccc4C3)c2)CC1` [Compound 301], the EC50 is less than 100 nM in experiment [1] and 101 to 1000 nM in the experiment on Z-138 cell line.

With `CC(=O)N1CCC(Nc2cncc(C(=O)NC[C@H](O)CN3CCc4ccccc4C3)c2)CC1` [Compound 302], the EC50 (in experiment [1]; in the experiment on Z-138 cell line) was less than 100 nM in each case.

In the case of `O=C(NC[C@H](O)CN1CCc2ccccc2C1)c1ccnc(NC2CCOC2)c1` (stereo partly shown) [Compound 306], the EC50 (in experiment [1]; in the experiment with Z-138 cell line) was less than 100 nM in each case.

For `Cc1cnc(NC2CCOCC2)cc1C(=O)NC[C@H](O)CN1CCc2ccccc2C1` [Compound 307], the EC50 was less than 100 nM in experiment [1] and 101 to 1000 nM with Z-138 cell line.

As for `Cc1cnc(NC2CCOC2)cc1C(=O)NC[C@H](O)CN1CCc2ccccc2C1` (stereo partly shown) [Compound 308], the EC50 was 101 to 1000 nM in experiment [1] and 10000 to 50000 nM with Z-138 cell line.

As for `Cn1nc(NC2CCOCC2)cc1C(=O)NCC(O)CN1CCc2ccccc2C1` (stereo not shown) [Compound 311], the EC50 (in experiment [1]; in the experiment with Z-138 cell line) was less than 100 nM each time.

In the case of `Cn1nc(C(=O)NCC(O)CN2CCc3ccccc3C2)cc1NC1CCOCC1` (stereo not shown) [Compound 312], the results for the EC50 (in experiment [1]; with Z-138 cell line) were 101 to 1000 nM and 1000 to 10000 nM, respectively.

Take `CNCCNc1cc(C(=O)NC[C@H](O)CN2CCc3ccccc3C2)ccn1` [Compound 314]: the EC50 in experiment [1] was less than 100 nM; in the experiment on Z-138 cell line it was 10000 to 50000 nM.

For the molecule `CC(=O)N(C)CCNc1cc(C(=O)NC[C@H](O)CN2CCc3ccccc3C2)ccn1` [Compound 315], the EC50 in experiment [1] was less than 100 nM; in the experiment on Z-138 cell line, 101 to 1000 nM.

Take `O=C(NC[C@H](O)CN1CCc2ccccc2C1)c1ccnc(NCCNCC(F)(F)F)c1` [Compound 316]: the EC50 in experiment [1] was less than 100 nM; in the experiment on Z-138 cell line it was 1000 to 10000 nM.

As for `O=C(NC[C@H](O)CN1CCc2ccccc2C1)c1cnc2ccccc2c1` [Compound 317], the EC50 in experiment [1] is less than 100 nM; in the experiment on Z-138 cell line it was 101 to 1000 nM.

As to `O=C(NC[C@H](O)CN1CCc2ccccc2C1)c1ccc2cc(O)ccc2c1` [Compound 318], the EC50 in experiment [1] lay within 101 to 1000 nM; in the experiment with Z-138 cell line it was 1000 to 10000 nM.

Consider `O=C(NC[C@H](O)CN1CCc2ccccc2C1)c1nc2cc(Br)ccc2[nH]1` [Compound 319], for which the EC50 is less than 100 nM in experiment [1] and 1000 to 10000 nM in the experiment on Z-138 cell line.

On to `NCCNc1cc(C(=O)NC[C@H](O)CN2CCc3ccccc3C2)ccn1` [Compound 320], for which the EC50 was in the range of 101 to 1000 nM in experiment [1] and 1000 to 10000 nM in the experiment with Z-138 cell line.

On to `O=C(NC[C@H](O)CN1CCc2ccccc2C1)c1ccc(OC2CCN(CCO)CC2)cc1` [Compound 321], for which the figures for the EC50 (in experiment [1]; in the experiment with Z-138 cell line) were less than 100 nM and 101 to 1000 nM, respectively.

In the case of `CC(C)(C)C(=O)N1CCC(Oc2ccc(C(=O)NC[C@H](O)CN3CCc4ccccc4C3)cc2)CC1` [Compound 322], the EC50 in experiment [1] is less than 100 nM; in the experiment with Z-138 cell line, 101 to 1000 nM.

As for `O=C(NC[C@H](O)CN1CCc2ccccc2C1)c1ccnc(OC2CCOCC2)c1` [Compound 323], the EC50 in experiment [1] is less than 100 nM; with Z-138 cell line it was 101 to 1000 nM.

For `CN(c1cc(C(=O)NC[C@H](O)CN2CCc3ccccc3C2)ccn1)C1CCOCC1` [Compound 324], the EC50 in experiment [1] is less than 100 nM; in the experiment on Z-138 cell line, 101 to 1000 nM.

With `Cn1nccc1Nc1cc(C(=O)NC[C@H](O)CN2CCc3ccccc3C2)ccn1` [Compound 325], the EC50 is less than 100 nM in experiment [1] and 101 to 1000 nM with Z-138 cell line.

Regarding `CC(C)(C)c1cc(Nc2cc(C(=O)NC[C@H](O)CN3CCc4ccccc4C3)ccn2)n[nH]1` [Compound 326], the EC50 is less than 100 nM in experiment [1] and 101 to 1000 nM in the experiment on Z-138 cell line.

On to `O=C(NC[C@H](O)CN1CCc2ccccc2C1)c1c(O)ccc2ccccc12` [Compound 327], for which the figures for the EC50 (in experiment [1]; in the experiment on Z-138 cell line) were 101 to 1000 nM and greater than 20000 nM, respectively.

As to `O=C(NC[C@H](O)CN1CCc2ccccc2C1)c1ccc2c(c1O)NCCC2` [Compound 328], the results for the EC50 (in experiment [1]; with Z-138 cell line) were greater than 1000 nM and greater than 20000 nM, respectively.

Turning to `COCCN1CCC(Oc2ccc(C(=O)NC[C@H](O)CN3CCc4ccccc4C3)cc2)CC1` [Compound 329], the EC50 in experiment [1] was less than 100 nM; in the experiment with Z-138 cell line it was 101 to 1000 nM.

As to `O=C(NC[C@H](O)CN1CCc2ccccc2C1)c1ccc(OC2CCN(Cc3ccccc3)CC2)cc1` [Compound 330], the EC50 (in experiment [1]; with Z-138 cell line) was less than 100 nM throughout.

Regarding `O=C(NC[C@H](O)CN1CCc2ccccc2C1)c1ccc(OC2CCN(Cc3ccncc3)CC2)cc1` [Compound 331], the EC50 (in experiment [1]; in the experiment on Z-138 cell line) was less than 100 nM each time.

In the case of `COc1cc(C(=O)NC[C@H](O)CN2CCc3ccccc3C2)cc(NC2CCC2)n1` [Compound 332], the EC50 (in experiment [1]; in the experiment with Z-138 cell line) was less than 100 nM each time.

`CN(c1cc(C(=O)NC[C@H](O)CN2CCc3ccccc3C2)ccn1)C1CCC1` [Compound 333]: the EC50 in experiment [1] is less than 100 nM; in the experiment on Z-138 cell line, 101 to 1000 nM.

Turning to `O=C(NC[C@H](O)CN1CCc2ccccc2C1)c1ccnc(NC2CCCC2)c1` [Compound 334], the EC50 (in experiment [1]; in the experiment with Z-138 cell line) was less than 100 nM each time.

For `O=C(NC[C@H](O)CN1CCc2ccccc2C1)c1ccnc(NC2CCCCC2)c1` [Compound 335], the EC50 (in experiment [1]; in the experiment on Z-138 cell line) was less than 100 nM in each case.

Consider `O=C(NC[C@@H](O)CN1CCc2ccccc2C1)c1cc(NC2COC2)ncn1` [Compound 336], for which the EC50 in experiment [1] is 101 to 1000 nM; in the experiment with Z-138 cell line it was 10000 to 50000 nM.

Take `[2H]C1([2H])Cc2ccccc2C([2H])([2H])N1C[C@@H](O)CNC(=O)c1cc(NC2COC2)ncn1` [Compound 337]: the EC50 in experiment [1] was less than 100 nM; in the experiment on Z-138 cell line, 101 to 1000 nM.

In the case of `O=C(NC[C@H](O)CN1CCc2ccccc2C1)c1ccnc(Nc2ccncc2)c1` [Compound 412], the EC50 in experiment [1] (In Cell Western methylation) is less than 100 nM; in the experiment with Z-138 cell line (Cell Titer Glo), 101 to 1000 nM.

On to `CC(=O)N1CCC(Nc2cc(C(=O)NC[C@@H](O)CN3CCc4ccccc4C3)ncn2)CC1` [Compound 687], for which the figures for the EC50 (in experiment [1] (In Cell Western methylation); with Z-138 cell line (Cell Titer Glo)) were less than 100 nM and 101 to 1000 nM, respectively.
